Reference: patent US11452704B2, “Prevention and treatment of muscle wasting with ketone supplementation” (UNIVERSITY OF SOUTH FLORIDA, priority 2017, dated 2022)

Tests used:
[1] = test system: cancer induced tissue wasting (muscle and fat), VM-M3 model of metastatic cancer; assay: VM-M3 model of metastatic cancer: muscle mass as ratio of total calories consumed (Example 2); assay type: in vivo, VM/Dk animals; conditions: with standard diet, vs standard diet or ketogenic diet; 21 days post-cancer implantation; FIG. 1
From the text: FIG. 1 depicts ratios of muscle mass to amount of calories consumed within a cancer cachexia VM-M3 modeling system, specifically with subjects having been fed standard diet, ketogenic diet, and ketone diester.
Taking a model system of cancer induced tissue wasting (muscle and fat), R,S 1,3 butanediol diacetoacetate+standard diet, ketogenic diet, and standard diet were applied. VM/Dk animals were matched for sex, age, and bodyweight to ensure controlled groups. Animals were implanted with VM-M3 cell in the left flank to create the VM-M3 model of metastatic cancer. Once implanted, primary tumor forms at site of implantation, and then cells metastasize to all major organ systems that results in tissue wasting. Animals were harvested at 21 days post-cancer implantation to evaluate tissue wasting. […] This confirms that R,S 1,3 butanediol diacetoacetate is an anti-catabolic/anti-tissue wasting compound.

[2] = test system: tissue catabolism/atrophy/cachexia that is induced by LPS; assay: LPS-induced catabolism, single gavage, bodyweight tracked for 2 weeks (Example 4); assay type: in vivo, VM/Dk mice
From the text: FIG. 3A depicts acute percent bodyweight changes that accompany Lipopolysaccharide after treatment with control or ketone supplementation in VM/Dk mice.
FIG. 3B depicts acute bodyweight changes that accompany Lipopolysaccharide after treatment with control or ketone supplementation in VM/Dk mice.
FIG. 3C depicts chronic percent bodyweight changes that accompany Lipopolysaccharide after treatment with control or ketone supplementation in VM/Dk mice.
FIG. 3D depicts the difference in bodyweight with control treatment at baseline versus each day following Lipopolysaccharide treatment.
FIG. 3E depicts the difference in bodyweight with ketone supplement treatment at baseline versus each day following Lipopolysaccharide treatment.
FIGS. 3A-E depict results from Weight matched animals who were administered 10 mg/kg LPS intraperitoneally. After intraperitoneal LPS injection, 4 mL/kg of water (n=4) or R/S 1,3 Butanediol Acetoacetate Diester (Ketone Diester; n=5) were intragastrically gavaged into animals one time. Bodyweight and food intake were tracked for 2 weeks post LPS administration. […] FIG. 3D-E depicts animals administered water gavage post LPS were not able to recovery to baseline bodyweight levels until 11 days post LPS administration.

[3] = test system: anorexia induced by catabolic/atrophy/cachexic stimulus (LPS); assay: LPS-induced anorexia, food intake (Example 5); assay type: in vivo; conditions: 10 mg/kg LPS i.p.; one-time dose 4 mL/kg intragastric gavage vs water; FIG. 4A-B
Protocol: FIG. 4A depicts the difference in anorexia symptoms following Lipopolysaccharide administration with treatment with control or ketone supplementation.
FIG. 4B depicts the difference in caloric intake following Lipopolysaccharide administration with treatment with control or ketone supplementation.
FIG. 4A-B depicts weight matched animals who were administered 10 mg/kg LPS intraperitoneally. After intraperitoneal LPS injection, 4 mL/kg of water (n=4) or R/S 1,3 Butanediol Acetoacetate Diester (Ketone Diester; n=5) were intragastrically gavaged into animals. Food Intake was tracted to determine if a one-time does of Ketone Diester was able to reduce anorexia experiences post catabolic/atrophy/cachexic stimulus (10 mg/kg LPS intraperitoneally).

[4] = test system: tissue catabolism/atrophy/cachexia that is induced by LPS; assay: LPS-induced catabolism, pair fed animals, multiple treatments (Example 6); assay type: in vivo
Protocol: FIG. 5A depicts the difference in bodyweight following Lipopolysaccharide administration with multiple treatments with control or ketone supplementation with calories controlled across groups.
FIG. 5B depicts the difference in percent bodyweight following Lipopolysaccharide administration with multiple treatments with control or ketone supplementation with calories controlled across groups.
FIG. 5A-B depicts weight matched animals who were administered 10 mg/kg LPS intraperitoneally. After intraperitoneal LPS injection, 4 mL/kg of water (n=4) or R/S 1,3 Butanediol Acetoacetate Diester (Ketone Diester; n=4) were intragastrically gavaged into animals. Animals were pair fed to ensure calories were equivalent between groups to remove influence of caloric intake on tissue catabolism/atrophy/cachexia. […] This effect was retained for a minimum of 2 days following catabolic/atrophy/cachexia stimulus (10 mg/kg LPS intraperitoneal). The ability of Ketone Diester to attenuate catabolism was independent of caloric intake/anorexia induced by LPS.

cancer cachexia (VM-M3) = assay: Cancer cachexia (VM-M3), skeletal muscle weight as ratio to baseline bodyweight (Example 7); assay type: in vivo; conditions: ketone diester in standard diet food at 30% by weight; 21 days post cancer injection; vs cancer on standard diet; FIG. 6A-B
From the text: FIG. 6A depicts the difference in skeletal muscle weight following cancer cachexia administration (VM-M3) with control or ketone supplementation.
FIG. 6B depicts the difference in skeletal muscle weight following cancer cachexia administration (VM-M3) with control or ketone supplementation.
FIG. 6A-B depict weight matched animals who were split into 3 groups 1) Animals without cancer injected with vehicle on standard diet (Sham; n=11), 2) animals with cancer on standard diet (n=11), and 3) animals with cancer with ketone diester incorporated into the standard diet food at 30% by weight (n=11). Animals bodyweight was measured at baseline. Cancer groups were assessed in a validated model of cancer cachexia. At 21 days post vehicle or cancer injection, tissue were harvest and weighed. Skeletal Muscle weight was set as a ratio to baseline bodyweight to determine the differences in skeletal muscle tissue as compared to set pre-cancer timepoint.

CC(=O)CC(=O)OCCC(C)OC(=O)CC(C)=O (stereo not shown) [Ketone Diester, R/S 1,3 Butanediol Acetoacetate Diester]
percentage of muscle mass as a ratio of total calories consumed (Quad/Carcass/Absolute calories consumed) [1]: substantially higher percentage of muscle mass compared to the amount of calories consumed | bodyweight versus baseline on each day following LPS ([2]; 10 mg/kg LPS i.p., 4 mL/kg gavage, FIG. 3E (water control recovered only at 11 days)): did not significantly reduced in bodyweight | attenuation of tissue catabolism/atrophy/cachexia induced by LPS ([2]; 10 mg/kg LPS i.p., 4 mL/kg intragastric gavage one time, within 1st 24 hour post LPS, FIG. 3A): 46% | attenuation of percentage of tissue catabolism/atrophy/cachexia induced by LPS ([2]; 10 mg/kg LPS i.p., 4 mL/kg intragastric gavage one time, within 1st 24 hours post LPS, FIG. 3B): 48% | chronic tissue catabolism (percent bodyweight change) compared to control ([2]; multi-weeks post-LPS administration, FIG. 3C): significantly attenuated tissue catabolism compared to control | anorexia (food intake, caloric intake) following LPS [3]: significantly reduced the anorexia | tissue catabolism/atrophy/cachexia (bodyweight) induced by LPS, calories controlled ([4]; 10 mg/kg LPS i.p., 4 mL/kg gavage, multiple administrations, FIG. 5A-B): significantly attenuated tissue catabolism/atrophy/cachexia | duration for which the anti-catabolic effect was retained ([4]; following 10 mg/kg LPS intraperitoneal): ≥ 2 days | Gastrocnemius catabolism/atrophy/cachexia (muscle weight / baseline bodyweight) (cancer cachexia (VM-M3)): significantly attenuated | Quadricep catabolism/atrophy/cachexia (muscle weight / baseline bodyweight) (cancer cachexia (VM-M3)): significantly attenuated
